Measurements as given in ChEMBL document CHEMBL3885861, “Open TG-GATES”.

Species: Rattus norvegicus
Test: Open TG-GATES - Regimen: Daily Repeat
Format: toxicity, organism-based, Sprague-Dawley
Parameters: regimen Daily Repeat, gender Male, age 6 weeks
Conditions: in vivo, po, route gavage; for APTT / Bas / Eos / Fbg / Hb / Ht / Lym / MCH / MCHC / MCV / Mono / Neu / PT / Plat / RBC / Ret / WBC: tissue Blood; for KIDNEY_L / KIDNEY_R / KIDNEY_TOTAL: tissue Kidney; for LIVER: tissue Liver; for A/G / ALP / ALT / AST / BUN / CRE / Ca / Cl / DBIL / GLC / IP / K / LDH / Na / PL / RALB / TBIL / TC / TG / TP / gamma-GTP: tissue Plasma
[1] = 30 mg/kg, 72 h, dose level Middle, time 3 day
[2] = 30 mg/kg, […], dose level Middle, time 7 day
[3] = 30 mg/kg, […], dose level Middle, time 14 day
[4] = 30 mg/kg, […], dose level Middle, time 28 day
[5] = 100 mg/kg, 72 h, dose level High, time 3 day
[6] = 100 mg/kg, […], dose level High, time 7 day
[7] = 100 mg/kg, […], dose level High, time 14 day
[8] = 100 mg/kg, […], dose level High, time 28 day

## O=C1CN(/N=C/c2ccc([N+](=O)[O-])o2)C(=O)N1 [NITROFURANTOIN]
[1]
  TERMINAL_BW: 243.4 g
  APTT: 18.9 s
  Bas: 0%
  Eos: 1%
  Fbg: 216.2 mg/dL
  Hb: 13.6 g/dL
  Ht: 38.5%
  Lym: 79.4%
  MCH: 22 pg
  MCHC: 35.3%
  MCV: 62.3 fL
  Mono: 3.2%
  Neu: 15.4%
  PT: 12.6 s
  Plat: 121.2 x10_4/uL
  RBC: 617.8 x10_4/ul
  Ret: 6.3%
  WBC: 106.9 x10_2/uL
  KIDNEY_L: 1 g
  KIDNEY_R: 1 g
  KIDNEY_TOTAL: 2.1 g
  LIVER: 11.6 g
  A/G: 1.6
  ALP: 1110 IU/L
  ALT: 35.4 IU/L
  AST: 67.2 IU/L
  BUN: 14.2 mg/dL
  CRE: 0.4 mg/dL
  Ca: 10.6 mg/dL
  Cl: 101.6 meq/L
  DBIL: 0.094 mg/dL
  GLC: 210.8 mg/dL
  IP: 7.6 mg/dL
  K: 3.8 meq/L
  LDH: 212 IU/L
  Na: 140.4 meq/L
  PL: 140.2 mg/dL
  RALB: 3.5 g/dL
  TBIL: 0.1 mg/dL
  TC: 70.6 mg/dL
  TG: 80.2 mg/dL
  TP: 5.6 g/dL
  gamma-GTP: 1 IU/L
[2]
  TERMINAL_BW: 275.5 g
  APTT: 18.5 s
  Bas: 0%
  Eos: 1%
  Fbg: 223 mg/dL
  Hb: 13.5 g/dL
  Ht: 38%
  Lym: 81%
  MCH: 21.3 pg
  MCHC: 35.6%
  MCV: 60 fL
  Mono: 2.2%
  Neu: 15.4%
  PT: 12.6 s
  Plat: 125.8 x10_4/uL
  RBC: 634.2 x10_4/ul
  Ret: 5.3%
  WBC: 120.4 x10_2/uL
  KIDNEY_L: 1.1 g
  KIDNEY_R: 1.1 g
  KIDNEY_TOTAL: 2.2 g
  LIVER: 12.9 g
  A/G: 1.3
  ALP: 965 IU/L
  ALT: 30.6 IU/L
  AST: 57.6 IU/L
  BUN: 17.6 mg/dL
  CRE: 0.4 mg/dL
  Ca: 10.7 mg/dL
  Cl: 101.8 meq/L
  DBIL: 0.1 mg/dL
  GLC: 197.6 mg/dL
  IP: 7.1 mg/dL
  K: 4.2 meq/L
  LDH: 193 IU/L
  Na: 140.4 meq/L
  PL: 164 mg/dL
  RALB: 3.3 g/dL
  TBIL: 0.2 mg/dL
  TC: 80.6 mg/dL
  TG: 163.2 mg/dL
  TP: 5.8 g/dL
  gamma-GTP: 1.2 IU/L
[3]
  TERMINAL_BW: 332 g
  APTT: 18.9 s
  Bas: 0%
  Eos: 0.8%
  Fbg: 224 mg/dL
  Hb: 14.4 g/dL
  Ht: 41.6%
  Lym: 79.4%
  MCH: 20.8 pg
  MCHC: 34.7%
  MCV: 60 fL
  Mono: 2.2%
  Neu: 16.8%
  PT: 12.4 s
  Plat: 120.1 x10_4/uL
  RBC: 693 x10_4/ul
  Ret: 4.7%
  WBC: 121.2 x10_2/uL
  KIDNEY_L: 1.4 g
  KIDNEY_R: 1.4 g
  KIDNEY_TOTAL: 2.7 g
  LIVER: 14.8 g
  A/G: 1.4
  ALP: 790.8 IU/L
  ALT: 33.2 IU/L
  AST: 58 IU/L
  BUN: 15.8 mg/dL
  CRE: 0.4 mg/dL
  Ca: 10.4 mg/dL
  Cl: 102.8 meq/L
  DBIL: 0.1 mg/dL
  GLC: 212.6 mg/dL
  IP: 7.1 mg/dL
  K: 3.7 meq/L
  LDH: 180.8 IU/L
  Na: 140.6 meq/L
  PL: 161.4 mg/dL
  RALB: 3.4 g/dL
  TBIL: 0.2 mg/dL
  TC: 78 mg/dL
  TG: 126.6 mg/dL
  TP: 5.9 g/dL
  gamma-GTP: 1.2 IU/L
[4]
  TERMINAL_BW: 404.8 g
  APTT: 20.8 s
  Bas: 0%
  Eos: 1.2%
  Fbg: 215 mg/dL
  Hb: 15.3 g/dL
  Ht: 43.5%
  Lym: 80.8%
  MCH: 19.8 pg
  MCHC: 35.1%
  MCV: 56.5 fL
  Mono: 2.6%
  Neu: 14.2%
  PT: 12.7 s
  Plat: 118.4 x10_4/uL
  RBC: 770.8 x10_4/ul
  Ret: 2.9%
  WBC: 92.9 x10_2/uL
  KIDNEY_L: 1.5 g
  KIDNEY_R: 1.5 g
  KIDNEY_TOTAL: 3 g
  LIVER: 16.9 g
  A/G: 1.4
  ALP: 568.2 IU/L
  ALT: 31.6 IU/L
  AST: 54.4 IU/L
  BUN: 16.4 mg/dL
  CRE: 0.5 mg/dL
  Ca: 10.5 mg/dL
  Cl: 103.2 meq/L
  DBIL: 0.1 mg/dL
  GLC: 208 mg/dL
  IP: 6.3 mg/dL
  K: 3.5 meq/L
  LDH: 133.4 IU/L
  Na: 140.6 meq/L
  PL: 146 mg/dL
  RALB: 3.6 g/dL
  TBIL: 0.2 mg/dL
  TC: 66.4 mg/dL
  TG: 137.6 mg/dL
  TP: 6.1 g/dL
  gamma-GTP: 1.4 IU/L
[5]
  TERMINAL_BW: 241.1 g
  APTT: 17.7 s
  Bas: 0%
  Eos: 1%
  Fbg: 231 mg/dL
  Hb: 13.4 g/dL
  Ht: 37.9%
  Lym: 77.8%
  MCH: 21.4 pg
  MCHC: 35.5%
  MCV: 60.5 fL
  Mono: 3.2%
  Neu: 15.2%
  PT: 12.4 s
  Plat: 130.5 x10_4/uL
  RBC: 628.2 x10_4/ul
  Ret: 4.9%
  WBC: 70.5 x10_2/uL
  KIDNEY_L: 1.1 g
  KIDNEY_R: 1.1 g
  KIDNEY_TOTAL: 2.2 g
  LIVER: 11.7 g
  A/G: 1.5
  ALP: 909.6 IU/L
  ALT: 35.2 IU/L
  AST: 67.8 IU/L
  BUN: 14.2 mg/dL
  CRE: 0.4 mg/dL
  Ca: 10.6 mg/dL
  Cl: 100.6 meq/L
  DBIL: 0.1 mg/dL
  GLC: 209.4 mg/dL
  IP: 7.1 mg/dL
  K: 3.9 meq/L
  LDH: 220.2 IU/L
  Na: 139.6 meq/L
  PL: 153.8 mg/dL
  RALB: 3.3 g/dL
  TBIL: 0.1 mg/dL
  TC: 75 mg/dL
  TG: 110.8 mg/dL
  TP: 5.4 g/dL
  gamma-GTP: 1 IU/L
[6]
  TERMINAL_BW: 266.8 g
  APTT: 18.4 s
  Bas: 0%
  Eos: 1%
  Fbg: 217.8 mg/dL
  Hb: 13.5 g/dL
  Ht: 38.1%
  Lym: 82.6%
  MCH: 21.6 pg
  MCHC: 35.4%
  MCV: 61.1 fL
  Mono: 2.2%
  Neu: 13.2%
  PT: 12.8 s
  Plat: 124 x10_4/uL
  RBC: 624.8 x10_4/ul
  Ret: 5.1%
  WBC: 120.6 x10_2/uL
  KIDNEY_L: 1.2 g
  KIDNEY_R: 1.2 g
  KIDNEY_TOTAL: 2.5 g
  LIVER: 12.6 g
  A/G: 1.5
  ALP: 995.4 IU/L
  ALT: 31.2 IU/L
  AST: 63.8 IU/L
  BUN: 16 mg/dL
  CRE: 0.4 mg/dL
  Ca: 10.8 mg/dL
  Cl: 102.2 meq/L
  DBIL: 0.1 mg/dL
  GLC: 187 mg/dL
  IP: 7 mg/dL
  K: 4.1 meq/L
  LDH: 218.8 IU/L
  Na: 140.4 meq/L
  PL: 142.4 mg/dL
  RALB: 3.4 g/dL
  TBIL: 0.2 mg/dL
  TC: 70.2 mg/dL
  TG: 111 mg/dL
  TP: 5.7 g/dL
  gamma-GTP: 1 IU/L
[7]
  TERMINAL_BW: 314.4 g
  APTT: 19.8 s
  Bas: 0%
  Eos: 0.8%
  Fbg: 225.4 mg/dL
  Hb: 14.2 g/dL
  Ht: 40.7%
  Lym: 81.8%
  MCH: 19.8 pg
  MCHC: 34.8%
  MCV: 56.9 fL
  Mono: 2.2%
  Neu: 14.4%
  PT: 12.4 s
  Plat: 133.3 x10_4/uL
  RBC: 717.2 x10_4/ul
  Ret: 3.9%
  WBC: 115.5 x10_2/uL
  KIDNEY_L: 1.4 g
  KIDNEY_R: 1.4 g
  KIDNEY_TOTAL: 2.8 g
  LIVER: 14.5 g
  A/G: 1.4
  ALP: 864.2 IU/L
  ALT: 34.8 IU/L
  AST: 74 IU/L
  BUN: 15.4 mg/dL
  CRE: 0.4 mg/dL
  Ca: 10.3 mg/dL
  Cl: 102.2 meq/L
  DBIL: 0.084 mg/dL
  GLC: 214.8 mg/dL
  IP: 6.6 mg/dL
  K: 3.5 meq/L
  LDH: 208.8 IU/L
  Na: 140.8 meq/L
  PL: 158.8 mg/dL
  RALB: 3.4 g/dL
  TBIL: 0.1 mg/dL
  TC: 79.2 mg/dL
  TG: 110 mg/dL
  TP: 6 g/dL
  gamma-GTP: 1.6 IU/L
[8]
  TERMINAL_BW: 380.6 g
  APTT: 20.5 s
  Bas: 0%
  Eos: 1%
  Fbg: 216.2 mg/dL
  Hb: 14.7 g/dL
  Ht: 42.6%
  Lym: 83.8%
  MCH: 18.9 pg
  MCHC: 34.6%
  MCV: 54.7 fL
  Mono: 2.4%
  Neu: 11.4%
  PT: 12.6 s
  Plat: 106 x10_4/uL
  RBC: 780.2 x10_4/ul
  Ret: 3.2%
  WBC: 143.7 x10_2/uL
  KIDNEY_L: 1.7 g
  KIDNEY_R: 1.7 g
  KIDNEY_TOTAL: 3.3 g
  LIVER: 16.2 g
  A/G: 1.5
  ALP: 573.8 IU/L
  ALT: 35.4 IU/L
  AST: 63.8 IU/L
  BUN: 15 mg/dL
  CRE: 0.5 mg/dL
  Ca: 10.3 mg/dL
  Cl: 104 meq/L
  DBIL: 0.1 mg/dL
  GLC: 218.6 mg/dL
  IP: 6 mg/dL
  K: 3.7 meq/L
  LDH: 159.4 IU/L
  Na: 141.2 meq/L
  PL: 155.2 mg/dL
  RALB: 3.6 g/dL
  TBIL: 0.2 mg/dL
  TC: 75.6 mg/dL
  TG: 109.8 mg/dL
  TP: 6 g/dL
  gamma-GTP: 0.8 IU/L
